Laboratory results: ChEMBL document CHEMBL3639234, “Pyrimidine PDE10 inhibitors” (2015)

Molecular target: cAMP and cAMP-inhibited cGMP 3',5'-cyclic phosphodiesterase 10A (Homo sapiens, UniProt Q9Y233)
Test: Inhibition Assay: PDE10A2 was amplified from human fetal brain cDNA (Clontech, Mountain View, Calif.) using a forward primer corresponding to nucleotides 56-77 of human PDE10A2 (Accession No. AF127480, Genbank Identifier 4894716), containing a Kozak consensus sequence, and a reverse primer corresponding to nucleotides 2406-2413 of human PDE10A2 (Accession No. AF127480, Genbank Identifier 4894716). Amplification with Easy-A polymerase (Stratagene, La Jolla, Calif.) was 95° C. for 2 minutes followed by thirty three cycles of 95° C. for 40 seconds, 55° C. for 30 seconds, and 72° C. for 2 minutes 48 seconds. Final extension was 72° C. for 7 minutes. The PCR product was TA cloned into pcDNA3.2-TOPO (Invitrogen, Carlsbad, Calif.) according to standard protocol. AD293 cells with 70-80% confluency were transiently transfected with human PDE10A2/pcDNA3.2-TOPO using Lipofectamine 2000 according to manufacturer specifications (Invitrogen, Carlsbad, Calif.). Cells were harvested 48 hours post-transfection.
Type: cell-based

Sequence of cAMP and cAMP-inhibited cGMP 3',5'-cyclic phosphodiesterase 10A (Q9Y233 whole entry): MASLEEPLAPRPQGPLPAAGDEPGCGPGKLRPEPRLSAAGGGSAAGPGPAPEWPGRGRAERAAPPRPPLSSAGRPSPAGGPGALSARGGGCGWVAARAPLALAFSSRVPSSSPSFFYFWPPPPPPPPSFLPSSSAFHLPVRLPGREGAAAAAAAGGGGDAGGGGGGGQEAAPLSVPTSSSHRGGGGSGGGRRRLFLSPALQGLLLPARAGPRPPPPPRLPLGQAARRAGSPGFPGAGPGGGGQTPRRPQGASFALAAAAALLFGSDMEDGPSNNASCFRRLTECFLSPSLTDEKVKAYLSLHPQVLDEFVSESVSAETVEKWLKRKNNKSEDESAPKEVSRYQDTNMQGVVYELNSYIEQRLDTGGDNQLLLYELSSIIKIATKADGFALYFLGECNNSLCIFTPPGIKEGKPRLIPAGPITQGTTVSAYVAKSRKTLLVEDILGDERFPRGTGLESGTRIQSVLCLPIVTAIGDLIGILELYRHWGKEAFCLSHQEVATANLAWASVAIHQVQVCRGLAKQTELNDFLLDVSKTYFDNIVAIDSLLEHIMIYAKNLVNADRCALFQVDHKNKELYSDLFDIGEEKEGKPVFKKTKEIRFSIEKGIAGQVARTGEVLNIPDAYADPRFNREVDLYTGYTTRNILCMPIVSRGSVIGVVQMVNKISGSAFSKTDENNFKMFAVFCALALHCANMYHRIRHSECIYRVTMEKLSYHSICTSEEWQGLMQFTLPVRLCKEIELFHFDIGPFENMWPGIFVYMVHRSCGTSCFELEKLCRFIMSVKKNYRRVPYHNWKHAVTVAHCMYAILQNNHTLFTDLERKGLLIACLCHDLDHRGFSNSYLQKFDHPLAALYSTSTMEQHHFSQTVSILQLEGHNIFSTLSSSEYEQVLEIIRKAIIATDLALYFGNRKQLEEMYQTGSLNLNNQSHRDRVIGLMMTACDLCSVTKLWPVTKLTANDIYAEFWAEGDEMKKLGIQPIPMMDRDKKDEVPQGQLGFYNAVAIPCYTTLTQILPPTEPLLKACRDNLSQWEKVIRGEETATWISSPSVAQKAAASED

In the case of `Cc1ccc([C@H]2C[C@@H]2COc2cc(NCc3cnn(C)c3)nc(C)n2)nc1`, the Ki is reported as 0.04 nM.
